From PMC11513893, “Discovery of Oral Degraders of the ROS1 Fusion Protein with Potent Activity against Secondary Resistance Mutations” (Journal of Medicinal Chemistry, 2024)
Values joined by “and” are separate entries in the source; they are usually repeats but may differ in a detail not shown here. Equal entries are not always repeated.

Columns and labels:
LTK = LTK (Homo sapiens, UniProt P29376); test: Degradation assay; type: cell-based; settings: average of duplicate measurements
Protocol: (§1) However, the degradation selectivity of 9o often contrasts with its kinase binding selectivity as determined in cells treated with 9o where the kinase level was measurable by Western blot analysis. […] For example, FLT3, CHEK2, and FES, all with kinase binding at <10 nM, were only moderately or minimally degraded, if at all (Table 9).

RET = RET (Homo sapiens, UniProt P07949); test: Degradation assay; type: cell-based; settings: average of duplicate measurements
Protocol: as §1

ERBB2 = ERBB2 (Homo sapiens, UniProt P04626); test: Degradation assay; type: cell-based; settings: average of duplicate measurements
Protocol: as §1

FES = FES (Homo sapiens, UniProt P07332); test: Degradation assay; type: cell-based; settings: average of duplicate measurements
Protocol: as §1

CAMK2D = test: Degradation assay; type: cell-based; settings: average of duplicate measurements
Protocol: as §1

ERBB4/HER4 = ERBB4/HER4 (Homo sapiens, UniProt Q15303); test: Degradation assay; type: cell-based; settings: average of duplicate measurements
Protocol: as §1

CLK1 = CLK1 (Homo sapiens, UniProt P49759); test: Degradation assay; type: cell-based; settings: average of duplicate measurements
Protocol: as §1

FAK/PTK2 [1] = biological target: T1, FAK/PTK2 (Homo sapiens, UniProt Q05397); test: Degradation assay; type: cell-based; settings: average of duplicate measurements
Protocol: as §1

ALK [2] = biological target: T2, ALK (Homo sapiens, UniProt Q9UM73); test: Degradation assay; type: cell-based; settings: average of duplicate measurements
Protocol: as §1

EGFR = EGFR (Homo sapiens, UniProt P00533); test: Degradation assay; type: cell-based; settings: average of duplicate measurements
Protocol: as §1

CHEK2 [3] = biological target: T3, CHEK2 (Homo sapiens, UniProt O96017); test: Degradation assay; type: cell-based; settings: average of duplicate measurements
Protocol: as §1

FER = FER (Homo sapiens, UniProt P16591); test: Degradation assay; type: cell-based; settings: average of duplicate measurements
Protocol: as §1

FLT3 = FLT3 (Homo sapiens, UniProt P36888); test: Degradation assay; type: cell-based; settings: average of duplicate measurements
Protocol: as §1

C-MET = C-MET (Homo sapiens, UniProt P08581); test: Degradation assay; type: cell-based; settings: average of duplicate measurements
Protocol: as §1

FAK/PTK2 [4] = biological target: T1, FAK/PTK2; test: Kinase assay; type: biochemical; settings: average of duplicate measurements
ROS1 (G2101A) = ROS1 (G2101A) (Homo sapiens, UniProt P08922, G2101A); test: Kinase assay; type: biochemical; settings: average of duplicate measurements
Ba/F3 ROS1 D2033N = test: Antiproliferation assay; type: cell-based; settings: Mus musculus, BaF3; Ba/F3 cells, cell growth inhibition
Text: (§2) To assess targeted degradation of ROS1 fusion proteins, we first established a mouse pro-B cell line Ba/F3 as a model expressing the CD74-ROS1 oncogene or CD74-ROS1 with clinically observed secondary/tertiary mutations. The Ba/F3 cell line is dependent on interleukin-3 for survival and proliferation. Upon transduction of oncogenic ROS1, Ba/F3 cells become independent of interleukin-3 but dependent on the transduced driver gene.
(§3) Ba/F3 immortalized murine bone marrow–derived pro-B cells were obtained from Creative Biogene (Shirley, NY) and cultured in RPMI supplemented with 10% FBS and IL3 (0.5 ng/mL). Ba/F3 cells expressing ROS1 variants were maintained in RPMI supplemented with 10% FBS and puromycin (0.7 mg/mL). […] Each compound was dissolved in DMSO and serially diluted in RPMI for cell culture experiments.
(§4) To assess the 72 h effect of drug treatment on cell proliferation, 2000 to 3000 cells were plated in replicates of three in 96-well plates. The plates were placed in an incubator at 37 °C, 5% CO2 for 72 h. Following drug treatments, the cells were incubated with the Alamar Blue Assay reagent (BioRad), 5 μL each well for 4 h at 37 °C and 5% CO2. Luminescence was measured on a multiplate reader and analyzed. […] IC50 values were determined using a nonlinear regression model with a sigmoidal dose response in GraphPad. The data were collected based on triplicate experiments, and presented as mean ± SD.
(§5) The resulting virus was used to infect Ba/F3 cells. After retroviral infection, Ba/F3 cells were selected by incubation with puromycin (0.7 mg/mL) for 2 weeks. For Ba/F3 cells infected by the CD74–ROS1 variants, IL3 was withdrawn from the culture medium at least 2 weeks before the experiments.

Ba/F3 ROS1 L2026M = test: Antiproliferation assay; type: cell-based; settings: Mus musculus, BaF3; Ba/F3 cells, cell growth inhibition
Text: as §2, §3, §4, §5

Ba/F3 ROS1 G2032R-F2075V = test: Antiproliferation assay; type: cell-based; settings: Mus musculus, BaF3; Ba/F3 cells, cell growth inhibition
Text: as §2, §3, §4, §5

CAMK2G = CAMK2G (Homo sapiens, UniProt Q13555); test: Kinase assay; type: biochemical; settings: average of duplicate measurements
ALK [5] = biological target: T2, ALK; test: Kinase assay; type: biochemical; settings: average of duplicate measurements
ROS1 (L2086F) = test: Degradation assay; type: cell-based; settings: average of duplicate measurements
Protocol: as §1
Protein levels were analyzed using a WES instrument according to the WES User Guide from ProteinSimple in duplicate experiments. The samples were mixed with the fluorescent 5 master mix (ProteinSimple) and then heated at 95 °C for 5 min. Boiled samples, biotinylated protein ladder, antibody diluent, Streptavidin-HRP, primary antibodies, ProteinSimple horseradish peroxidase conjugated antirabbit or antimouse secondary antibodies, luminol-peroxide, and wash buffer were loaded into the WES plate (Wes 12–230 kDa Prefilled Plates with Split Buffer, ProteinSimple). The plates and capillary cartridges were loaded into the WES instrument, and protein separation, antibody incubation, and imaging were performed according to manufacturer’s instructions. Compass software (ProteinSimple) was used to acquire the data and to generate the virtual blot image reconstruction and chemiluminescence signal intensity electropherograms. […] Protein levels are expressed as the AUC of the peak chemiluminescence intensity. […]

[6] = system: Ba/F3 ROS1 L2086F, S1986F/L2086F, S1986F/G2032R/L2086F; test: Antiproliferation assay, resistant mutations involving L2086F; type: cell-based; settings: Mus musculus, BaF3; Ba/F3 cells, summary of Table 6; read-out: potency against resistant mutations involving L2086F, S1986F/L2086F, S1986F/G2032R/L2086F
Protocol: as §4

ROS1 = ROS1 (Homo sapiens, UniProt P08922); test: Kinase assay; type: biochemical; settings: average of duplicate measurements
CHEK2 [7] = biological target: T3, CHEK2; test: Kinase assay; type: biochemical; settings: average of duplicate measurements

T3 sequence (O96017 whole entry, species assumed): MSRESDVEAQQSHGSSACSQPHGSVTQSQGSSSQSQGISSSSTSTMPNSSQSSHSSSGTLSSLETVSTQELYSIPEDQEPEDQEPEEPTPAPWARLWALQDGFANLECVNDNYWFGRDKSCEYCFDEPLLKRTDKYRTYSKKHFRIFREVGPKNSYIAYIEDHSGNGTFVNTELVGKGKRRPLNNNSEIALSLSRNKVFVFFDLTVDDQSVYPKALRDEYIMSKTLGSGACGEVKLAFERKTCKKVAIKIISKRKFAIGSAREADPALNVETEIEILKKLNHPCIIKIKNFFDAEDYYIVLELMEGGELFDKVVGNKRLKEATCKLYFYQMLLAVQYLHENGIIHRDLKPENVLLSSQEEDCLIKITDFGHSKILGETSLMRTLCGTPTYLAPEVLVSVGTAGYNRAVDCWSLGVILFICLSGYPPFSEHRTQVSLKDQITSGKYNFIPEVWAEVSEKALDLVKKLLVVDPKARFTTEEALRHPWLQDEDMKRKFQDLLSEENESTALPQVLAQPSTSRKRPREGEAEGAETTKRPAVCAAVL
T2 sequence (Q9UM73 19-1620, species assumed): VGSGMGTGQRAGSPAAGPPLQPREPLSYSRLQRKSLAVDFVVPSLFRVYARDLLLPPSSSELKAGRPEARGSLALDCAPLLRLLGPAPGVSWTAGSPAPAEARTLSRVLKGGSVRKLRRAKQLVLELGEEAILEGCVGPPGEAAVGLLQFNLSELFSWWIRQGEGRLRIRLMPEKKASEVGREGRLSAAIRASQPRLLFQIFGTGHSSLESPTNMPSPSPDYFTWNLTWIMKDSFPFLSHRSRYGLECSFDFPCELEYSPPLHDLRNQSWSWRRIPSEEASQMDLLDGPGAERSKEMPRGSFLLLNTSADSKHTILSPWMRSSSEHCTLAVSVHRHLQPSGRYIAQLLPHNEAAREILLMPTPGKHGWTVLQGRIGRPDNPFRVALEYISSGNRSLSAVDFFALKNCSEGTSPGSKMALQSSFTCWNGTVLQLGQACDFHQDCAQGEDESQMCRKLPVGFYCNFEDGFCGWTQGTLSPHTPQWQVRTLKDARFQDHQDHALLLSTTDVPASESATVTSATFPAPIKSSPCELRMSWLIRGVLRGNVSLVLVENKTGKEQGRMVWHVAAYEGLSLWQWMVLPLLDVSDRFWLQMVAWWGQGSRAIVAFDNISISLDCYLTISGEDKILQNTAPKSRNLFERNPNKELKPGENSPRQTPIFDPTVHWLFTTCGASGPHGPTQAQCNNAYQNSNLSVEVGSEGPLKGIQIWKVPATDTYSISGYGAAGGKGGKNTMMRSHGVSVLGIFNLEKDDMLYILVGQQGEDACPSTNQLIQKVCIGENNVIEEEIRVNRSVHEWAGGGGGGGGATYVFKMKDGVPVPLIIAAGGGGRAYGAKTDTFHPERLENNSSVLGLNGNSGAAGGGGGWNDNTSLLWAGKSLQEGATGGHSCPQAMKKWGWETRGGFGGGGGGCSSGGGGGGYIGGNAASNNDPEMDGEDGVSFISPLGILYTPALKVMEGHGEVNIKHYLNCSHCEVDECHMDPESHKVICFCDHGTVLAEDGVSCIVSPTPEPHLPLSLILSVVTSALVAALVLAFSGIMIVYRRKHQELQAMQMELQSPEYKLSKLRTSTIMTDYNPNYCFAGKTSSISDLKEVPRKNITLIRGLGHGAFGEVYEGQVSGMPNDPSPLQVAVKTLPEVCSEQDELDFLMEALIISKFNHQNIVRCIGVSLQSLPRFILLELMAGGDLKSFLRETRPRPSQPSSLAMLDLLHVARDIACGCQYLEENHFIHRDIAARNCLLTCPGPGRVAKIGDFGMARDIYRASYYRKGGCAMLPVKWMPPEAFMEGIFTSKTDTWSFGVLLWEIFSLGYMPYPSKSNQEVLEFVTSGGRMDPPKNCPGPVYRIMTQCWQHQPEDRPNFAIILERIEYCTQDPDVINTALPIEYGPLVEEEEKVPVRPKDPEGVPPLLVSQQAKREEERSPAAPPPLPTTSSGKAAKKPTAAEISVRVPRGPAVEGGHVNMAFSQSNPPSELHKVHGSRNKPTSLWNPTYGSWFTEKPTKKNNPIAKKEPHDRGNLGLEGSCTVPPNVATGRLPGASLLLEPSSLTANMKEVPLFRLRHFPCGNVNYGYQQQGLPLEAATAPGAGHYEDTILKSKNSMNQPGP
T1 sequence (Q05397 whole entry): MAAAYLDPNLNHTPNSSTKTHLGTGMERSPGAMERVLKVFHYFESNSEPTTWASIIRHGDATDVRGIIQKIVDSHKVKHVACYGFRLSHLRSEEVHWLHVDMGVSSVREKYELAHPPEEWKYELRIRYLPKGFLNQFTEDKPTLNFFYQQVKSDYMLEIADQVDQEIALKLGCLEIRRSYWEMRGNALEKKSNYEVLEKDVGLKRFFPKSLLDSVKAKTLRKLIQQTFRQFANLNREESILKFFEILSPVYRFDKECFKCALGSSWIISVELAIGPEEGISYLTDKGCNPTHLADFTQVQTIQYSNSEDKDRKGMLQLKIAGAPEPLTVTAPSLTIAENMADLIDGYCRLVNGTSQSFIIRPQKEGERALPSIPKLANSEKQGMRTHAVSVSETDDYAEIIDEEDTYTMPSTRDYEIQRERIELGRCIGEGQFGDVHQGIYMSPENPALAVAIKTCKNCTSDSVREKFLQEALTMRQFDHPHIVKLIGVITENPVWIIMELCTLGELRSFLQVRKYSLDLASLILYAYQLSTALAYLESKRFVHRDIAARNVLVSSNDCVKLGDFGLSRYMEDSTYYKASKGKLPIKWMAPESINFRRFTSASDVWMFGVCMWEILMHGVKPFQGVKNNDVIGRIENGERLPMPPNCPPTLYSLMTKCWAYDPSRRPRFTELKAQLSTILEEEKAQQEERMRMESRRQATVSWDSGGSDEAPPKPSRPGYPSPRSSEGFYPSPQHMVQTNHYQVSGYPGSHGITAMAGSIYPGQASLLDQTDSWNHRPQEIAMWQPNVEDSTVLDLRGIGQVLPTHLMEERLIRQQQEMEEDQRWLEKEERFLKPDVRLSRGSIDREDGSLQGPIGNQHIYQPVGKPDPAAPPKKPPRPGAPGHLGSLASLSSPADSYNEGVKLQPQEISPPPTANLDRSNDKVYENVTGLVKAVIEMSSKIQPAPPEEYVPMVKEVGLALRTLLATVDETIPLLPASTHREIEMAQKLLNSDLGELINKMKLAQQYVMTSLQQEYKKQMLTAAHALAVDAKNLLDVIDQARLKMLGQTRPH
Sequence of FLT3 (P36888 27-993, species assumed): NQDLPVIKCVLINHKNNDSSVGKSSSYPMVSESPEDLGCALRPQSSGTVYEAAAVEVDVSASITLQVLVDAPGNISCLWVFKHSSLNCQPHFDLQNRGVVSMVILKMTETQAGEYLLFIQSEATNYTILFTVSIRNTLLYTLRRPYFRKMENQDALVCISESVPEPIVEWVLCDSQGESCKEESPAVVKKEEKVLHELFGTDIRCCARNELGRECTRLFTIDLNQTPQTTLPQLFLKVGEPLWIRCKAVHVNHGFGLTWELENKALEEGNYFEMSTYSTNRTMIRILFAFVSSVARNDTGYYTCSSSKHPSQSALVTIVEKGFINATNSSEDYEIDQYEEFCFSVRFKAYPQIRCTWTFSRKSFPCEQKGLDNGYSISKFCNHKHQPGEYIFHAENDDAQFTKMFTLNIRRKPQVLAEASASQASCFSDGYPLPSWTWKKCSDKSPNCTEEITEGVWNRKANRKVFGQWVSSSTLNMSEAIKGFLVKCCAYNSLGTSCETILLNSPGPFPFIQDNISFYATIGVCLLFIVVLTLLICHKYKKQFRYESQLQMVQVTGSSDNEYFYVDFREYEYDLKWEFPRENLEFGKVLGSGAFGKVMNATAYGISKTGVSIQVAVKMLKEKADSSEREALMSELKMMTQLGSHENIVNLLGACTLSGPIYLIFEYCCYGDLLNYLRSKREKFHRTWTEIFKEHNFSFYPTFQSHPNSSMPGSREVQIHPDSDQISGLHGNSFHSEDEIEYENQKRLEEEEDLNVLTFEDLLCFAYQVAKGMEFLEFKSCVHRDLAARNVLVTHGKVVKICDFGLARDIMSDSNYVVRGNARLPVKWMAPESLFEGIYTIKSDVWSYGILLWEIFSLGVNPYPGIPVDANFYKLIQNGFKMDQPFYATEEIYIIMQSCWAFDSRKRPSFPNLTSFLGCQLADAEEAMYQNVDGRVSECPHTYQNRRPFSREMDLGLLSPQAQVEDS
Sequence of ROS1 (P08922 1883-2347 limits assumed): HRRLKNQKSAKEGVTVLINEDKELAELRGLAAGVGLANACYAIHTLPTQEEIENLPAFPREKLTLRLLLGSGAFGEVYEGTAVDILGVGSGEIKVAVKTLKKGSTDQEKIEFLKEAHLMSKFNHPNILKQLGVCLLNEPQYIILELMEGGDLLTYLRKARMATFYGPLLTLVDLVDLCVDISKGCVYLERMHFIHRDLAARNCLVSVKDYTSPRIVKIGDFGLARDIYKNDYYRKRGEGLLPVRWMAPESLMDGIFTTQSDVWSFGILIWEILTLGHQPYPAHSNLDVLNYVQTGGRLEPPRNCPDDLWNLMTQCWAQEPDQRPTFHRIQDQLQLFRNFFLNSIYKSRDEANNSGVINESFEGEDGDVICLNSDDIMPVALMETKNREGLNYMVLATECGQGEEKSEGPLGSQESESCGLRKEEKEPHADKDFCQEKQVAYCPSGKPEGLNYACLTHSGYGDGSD

- DC50 (LTK): > 1000 nM
- DC50 (RET): 58 nM
- DC50 (ERBB2): 474 nM
- DC50 (FES): 320 nM
- DC50 (CAMK2D): 264 nM
- DC50 (ERBB4/HER4): > 1000 nM
- DC50 (CLK1): > 1000 nM
- DC50 (FAK/PTK2 [1]): 1.5 nM
- DC50 (ALK [2]): 1.7 nM
- DC50 (EGFR): 255 nM
- DC50 (CHEK2 [3]): 187 nM
- DC50 (FER): 17 nM
- DC50 (FLT3): > 1000 nM
- DC50 (C-MET): > 1000 nM
- IC50 (FAK/PTK2 [4]): 2.4 nM
- IC50 (ROS1 (G2101A)): 10.9 nM
- IC50 (Ba/F3 ROS1 D2033N): 9.6 nM
- IC50 (Ba/F3 ROS1 L2026M): 2.5 nM
- IC50 (Ba/F3 ROS1 G2032R-F2075V): 5.6 nM
- IC50 (CAMK2G): 48 nM
- IC50 (ALK [5]): 0.9 nM
- DC50 (ROS1 (L2086F)): 5.4 nM
- IC50 [6]: 1.9 to 66 nM
- IC50 (ROS1): 0.8 nM
- IC50 (CHEK2 [7]): < 10 nM and 3.6 nM
SMILES: COc1cc(N2CCC(N3CCN(CC4CCN(c5ccc6c(c5)CN(C5CCC(=O)NC5=O)C6=O)CC4)CC3)CC2)ccc1Nc1ncc(Cl)c(Nc2ccccc2P(C)(C)=O)n1 (stereo not shown) [9o, 3-(5-(4-((4-(1-(4-((5-Chloro-4-((2-(dimethylphosphoryl)phenyl)amino)pyrimidin-2-yl)amino)-3-methoxyphenyl)piperidin-4-yl)piperazin-1-yl)methyl)piperidin-1-yl)-1-oxoisoindolin-2-yl)piperidine-2,6-dione]
